Experiments:
giant foxtail = assay: Test A pre-/postemergence greenhouse test; assay type: in vivo, Setaria faberi; conditions: for Plant response rating, Foxtail, Giant: 0 to 100 scale where 0 is no effect and 100 is complete control; for Foxtail, Giant plant response rating: 0 to 100 scale
Summary of the method: (§1)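 Planting was into mixed loam soil and sand; preemergence treatment followed as a directed soil spray. Concurrently, emerged plants (one- to two-leaf, 2–10 cm) received postemergence applications of identically formulated compound (non-phytotoxic solvent, surfactant). After approximately ten days under greenhouse conditions, injury was judged by eye against untreated plants.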

morningglory [1] = assay: Test C pre-/postemergence test; assay type: in vivo, Ipomoea coccinea
Summary of the method: (§2)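 Seeds were planted and treated preemergence with test chemical in a non-phytotoxic solvent mixture containing surfactant. Postemergence applications of the same formulation went onto plants 2 to 18 cm tall (1- to 4-leaf stage). A dash marks no test result.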

morningglory [2] = assay: Test A pre-/postemergence greenhouse test; assay type: in vivo, Ipomoea spp.; conditions: for Plant response rating, Morningglory: 0 to 100 scale where 0 is no effect and 100 is complete control; for Morningglory plant response rating: 0 to 100 scale
Summary of the method: as §1

crabgrass = assay: Test A pre-/postemergence greenhouse test; assay type: in vivo, Digitaria sanguinalis; conditions: for Plant response rating, Crabgrass, Large: 0 to 100 scale where 0 is no effect and 100 is complete control; for Crabgrass, Large plant response rating: 0 to 100 scale
Summary of the method: as §1

soybean = assay: Test C pre-/postemergence test; assay type: in vivo, Glycine max
Summary of the method: as §2

Italian ryegrass = assay: Test C pre-/postemergence test; assay type: in vivo, Lolium multiflorum; conditions: for Plant response rating (0 to 100), Ryegrass, Italian / Plant response rating, Ryegrass, Italian: Postemergence; for Plant response rating, Ryegrass, Italian: scale 0 to 100, 0 no effect, 100 complete control
Summary of the method: as §2

wheat [3] = assay: Test C pre-/postemergence test; assay type: in vivo, Triticum aestivum
Summary of the method: as §2

wheat [4] = assay: Test A pre-/postemergence greenhouse test; assay type: in vivo, Triticum aestivum; conditions: for Plant response rating, Wheat: 0 to 100 scale where 0 is no effect and 100 is complete control; for Wheat plant response rating: 0 to 100 scale
Summary of the method: as §1

barnyardgrass = assay: Test C flooded paddy test; assay type: in vivo, Echinochloa crus-galli; conditions: Flood
Summary of the method: (§3)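 In-water treatment: compound dosed into 3 cm flood over soil, water level unchanged throughout. Controls run alongside; visual assessment at day 13–15.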

yellow nutsedge = assay: Test C pre-/postemergence test; assay type: in vivo, Cyperus esculentus
Summary of the method: as §2

Goosegrass = assay: Test C pre-/postemergence test; assay type: in vivo, Eleusin indica
Summary of the method: as §2

bermudagrass = assay: Test C pre-/postemergence test; assay type: in vivo, Cynodon dactylon
Summary of the method: as §2

pigweed = assay: Test C pre-/postemergence test; assay type: in vivo, Amaranthus retroflexus
Summary of the method: as §2

[5] = tested on: common (oilseed) sunflower; assay: Test C pre-/postemergence test; assay type: in vivo, Helianthus annuus
Summary of the method: as §2

umbrella sedge = assay: Test C flooded paddy test; assay type: in vivo, Cyperus difformis; conditions: Flood
Summary of the method: as §3

corn = assay: Test A pre-/postemergence greenhouse test; assay type: in vivo, Zea mays; conditions: for Plant response rating, Corn: 0 to 100 scale where 0 is no effect and 100 is complete control; for Corn plant response rating: 0 to 100 scale
Summary of the method: as §1

[6] = Postemergence, 500 g ai/ha, 0 is no effect, 100 is complete control
[7] = Preemergence, 125 g ai/ha, 0 no effect, 100 complete control
[8] = 62 g ai/ha, Preemergence, scale 0 to 100
[9] = 125 g ai/ha, preemergence, scale 0 (no effect) to 100 (complete control)
[10] = Postemergence, 62 g ai/ha, scale 0 to 100, 0 no effect, 100 complete control
[11] = Postemergence, 125 g ai/ha, scale 0 to 100, 0 no effect, 100 complete control
[12] = Postemergence, 250 g ai/ha, scale 0 to 100, 0 no effect, 100 complete control
[13] = Preemergence, 31 g ai/ha, scale 0 to 100 (0 no effect, 100 complete control)
[14] = preemergence, 250 g ai/ha, scale 0 (no effect) to 100 (complete control)
[15] = 62 g ai/ha, scale 0 to 100 (0 no effect, 100 complete control)
[16] = 250 g ai/ha, scale 0 to 100, 0 no effect, 100 complete control, 13 to 15 days

CCn1nc(C(F)(F)F)c(CS(=O)(=O)c2cc(C)cc[n+]2[O-])c1OCC(F)(F)F [Compound 64]
Plant response rating, Foxtail, Giant (giant foxtail; Postemergence, 125 g ai/ha): 80 | Foxtail, Giant plant response rating (giant foxtail; [6]): 90 | Foxtail, Giant plant response rating (giant foxtail; [7]): 100 | Plant response rating, Foxtail, Giant (giant foxtail; Preemergence, 500 g ai/ha): 100 | Morningglory plant response rating (morningglory [1]; [8]): 50 | Morningglory plant response rating (morningglory [1]; [9]): 55 | Plant response rating (0 to 100), Morningglory (morningglory [1]; Postemergence, 31 g ai/ha): 0 | Plant response rating, Morningglory (morningglory [1]; [10]): 0 | Plant response rating, Morningglory (morningglory [1]; [11]): 0 | Plant response rating, Morningglory (morningglory [1]; [12]): 0 | Plant response rating, Morningglory (morningglory [1]; [13]): 0 | Morningglory plant response rating (morningglory [1]; [14]): 80 | Plant response rating, Morningglory (morningglory [2]; Postemergence, 125 g ai/ha): 30 | Morningglory plant response rating (morningglory [2]; [6]): 60 | Morningglory plant response rating (morningglory [2]; [7]): 30 | Plant response rating, Morningglory (morningglory [2]; Preemergence, 500 g ai/ha): 80 | Plant response rating, Crabgrass, Large (crabgrass; Postemergence, 125 g ai/ha): 80 | Crabgrass, Large plant response rating (crabgrass; [6]): 90 | Crabgrass, Large plant response rating (crabgrass; [7]): 80 | Plant response rating, Crabgrass, Large (crabgrass; Preemergence, 500 g ai/ha): 100 | Soybean plant response rating (soybean; [8]): 20 | Soybean plant response rating (soybean; [9]): 70 | Plant response rating (0 to 100), Soybean (soybean; Postemergence, 31 g ai/ha): 25 | Plant response rating (0 to 100), Soybean (soybean; Postemergence, 62 g ai/ha): 25 | Plant response rating, Soybean (soybean; [11]): 30 | Plant response rating, Soybean (soybean; [12]): 35 | Plant response rating, Soybean (soybean; [13]): 0 | Soybean plant response rating (soybean; [14]): 80 | Ryegrass, Italian plant response rating (Italian ryegrass; [8]): 50 | Ryegrass, Italian plant response rating (Italian ryegrass; [9]): 90 | Plant response rating (0 to 100), Ryegrass, Italian (Italian ryegrass; 31 g ai/ha): 0 | Plant response rating (0 to 100), Ryegrass, Italian (Italian ryegrass; 62 g ai/ha): 0 | Plant response rating, Ryegrass, Italian (Italian ryegrass; 125 g ai/ha): 30 | Plant response rating, Ryegrass, Italian (Italian ryegrass; 250 g ai/ha): 45 | Ryegrass, Italian plant response rating (Italian ryegrass; [14]): 100 | Wheat plant response rating (wheat [3]; [8]): 20 | Wheat plant response rating (wheat [3]; [9]): 30 | Plant response rating (0 to 100), Wheat (wheat [3]; Postemergence, 31 g ai/ha): 0 | Plant response rating (0 to 100), Wheat (wheat [3]; Postemergence, 62 g ai/ha): 50 | Plant response rating, Wheat (wheat [3]; [11]): 65 | Plant response rating, Wheat (wheat [3]; [12]): 65 | Plant response rating, Wheat (wheat [3]; [13]): 0 | Wheat plant response rating (wheat [3]; [14]): 100 | Plant response rating, Wheat (wheat [4]; Postemergence, 125 g ai/ha): 50 | Wheat plant response rating (wheat [4]; [6]): 60 | Wheat plant response rating (wheat [4]; [7]): 40 | Plant response rating, Wheat (wheat [4]; Preemergence, 500 g ai/ha): 70 | Plant response rating, Barnyardgrass (barnyardgrass; [15]): 0 | Plant response rating, Barnyardgrass (barnyardgrass; [16]): 20 | Nutsedge, Yellow plant response rating (yellow nutsedge; [8]): 98 | Nutsedge, Yellow plant response rating (yellow nutsedge; [9]): 98 | Plant response rating (0 to 100), Nutsedge, Yellow (yellow nutsedge; Postemergence, 31 g ai/ha): 0 | Plant response rating, Nutsedge, Yellow (yellow nutsedge; [10]): 0 | Plant response rating, Nutsedge, Yellow (yellow nutsedge; [11]): 0 | Plant response rating, Nutsedge, Yellow (yellow nutsedge; [12]): 0 | Plant response rating, Nutsedge, Yellow (yellow nutsedge; [13]): 0 | Nutsedge, Yellow plant response rating (yellow nutsedge; [14]): 98 | Goosegrass plant response rating (Goosegrass; [8]): 100 | Goosegrass plant response rating (Goosegrass; [9]): 100 | Plant response rating (0 to 100), Goosegrass (Goosegrass; Postemergence, 31 g ai/ha): 0 | Plant response rating, Goosegrass (Goosegrass; [10]): 0 | Plant response rating, Goosegrass (Goosegrass; [11]): 0 | Plant response rating, Goosegrass (Goosegrass; [12]): 55 | Plant response rating, Goosegrass (Goosegrass; [13]): 95 | Goosegrass plant response rating (Goosegrass; [14]): 100 | Bermudagrass plant response rating (bermudagrass; 62 g ai/ha, Preemergence, scale 0 to 100 (0 no effect, 100 complete control)): 100 | Bermudagrass plant response rating (bermudagrass; [9]): 100 | Plant response rating (0 to 100), Bermudagrass (bermudagrass; Postemergence, 31 g ai/ha): 0 | Plant response rating, Bermudagrass (bermudagrass; [10]): 0 | Plant response rating, Bermudagrass (bermudagrass; [11]): 0 | Plant response rating, Bermudagrass (bermudagrass; [12]): 40 | Plant response rating, Bermudagrass (bermudagrass; [13]): 100 | Bermudagrass plant response rating (bermudagrass; [14]): 100 | Pigweed plant response rating (pigweed; [8]): 95 | Pigweed plant response rating (pigweed; [9]): 100 | Plant response rating (0 to 100), Pigweed (pigweed; Postemergence, 31 g ai/ha): 0 | Plant response rating (0 to 100), Pigweed (pigweed; Postemergence, 62 g ai/ha): 0 | Plant response rating, Pigweed (pigweed; [11]): 0 | Plant response rating, Pigweed (pigweed; [12]): 5 | Plant response rating, Pigweed (pigweed; [13]): 95 | Pigweed plant response rating (pigweed; [14]): 100 | Sunflower plant response rating [5, 8]: 30 | Sunflower plant response rating [5, 9]: 80 | Plant response rating, Sunflower [5, 13]: 0 | Sunflower plant response rating [5, 14]: 95 | Plant response rating, Sedge, Umbrella (umbrella sedge; [15]): 80 | Plant response rating, Sedge, Umbrella (umbrella sedge; [16]): 100 | Plant response rating, Corn (corn; Postemergence, 125 g ai/ha): 40 | Corn plant response rating (corn; [6]): 50 | Corn plant response rating (corn; [7]): 0 | Plant response rating, Corn (corn; Preemergence, 500 g ai/ha): 60
